Assay results taken from patent publication US8795630B2, “Butyrylcholinesterase ligands as diagnostic tools and treatment for diseases of the nervous system” (Treventis Corporation, priority 2008, dated 2014).

Key:
[1] = biological target: human recombinant AChE (Homo sapiens, UniProt P22303); assay: Acetylcholinesterase in vitro assay (hydrolysis of ligand followed by UV/Vis repetitive scans); format: biochemical; settings: phosphate buffer pH 8.0; change of absorbance in repeated scans
Method: In Examples 23-28, the interaction of the ligands with AChE was determined by measuring the rate of hydrolysis of the ligand in a buffered solution containing the enzyme. AChE stock solution consisted of 240 μg of human recombinant AChE dissolved in 1.5 mL of 0.1% aq. Gelatin. All ligands used in the assay were dissolved in a minimal amount of acetonitrile to form a ligand solution. 0.1 M Phosphate buffer PH 8.0 consisted of 1.2 g of NaH2PO4 dissolved in 100 mL of water and adjusted to the appropriate pH. The Assay was carried out by mixing 0.1 μmole of ligand solution with 5 μL of AChE stock solution and bringing the volume in a quartz cuvette of 1 cm path length to 1.5 mL with phosphate buffer. Scans using an UltraSpec 2100 Pro UV/Visible spectrophotometer over a wavelength of 200-900 nm monitored the rate of hydrolysis of the ligand by the enzyme. Change of absorbance in the spectrum indicated hydrolysis of the ligand by the enzyme.

[2] = biological target: T1, BuChE (Homo sapiens, UniProt P06276); assay: Butyrylcholinesterase in vitro assay (hydrolysis of ligand followed by UV/Vis repetitive scans); format: biochemical; settings: phosphate buffer pH 8.0; change of absorbance in repeated scans
Method: In Examples 39-54, interaction of the ligands with BuChE was determined by measuring the rate of the hydrolysis of the ligand in a buffered solution containing the enzyme. All ligands used in the assay were dissolved in a minimal amount of acetonitrile to form a ligand solution. 0.1 M Phosphate buffer PH 8.0 was prepared as to the above specifications. The Assay was carried out by mixing 0.1 μmol of ligand solution with 5 μL of BuChE stock solution and bringing the volume in a quartz cuvette of 1 cm path length to 1.5 mL with phosphate buffer. Scans using an UltraSpec 2100 Pro UV/Visible spectrophotometer over a wavelength of 200-900 nm monitored the rate of hydrolysis of the ligand by the enzyme. Change of absorbance in the spectrum indicated hydrolysis of the ligand by the enzyme. The results of these experiments generally indicate that enzymatic hydrolysis of the compounds does occur in the presence of BuChE.

[3] = biological target: T1, BuChE; assay: Michaelis-Menten constant and maximum reaction velocity measurement (Lineweaver-Burk plot); format: biochemical; settings: room temperature, λ=285 nm, average, N=3
Method: In Example 55, Km and relative Vmax values were determined for compounds identified to be hydrolyzed by BuChE. The assay was carried out by mixing 1 uL of BuChE stock solution in 1.4 mL of phosphate buffer. Absorbance of this solution was calibrated to zero and the reaction commenced with the addition of 100 μL of a solution of ligand in 100% acetonitrile. The reactions were carried out at room temperature. The rate of change of absorbance (ΔA/min), reflecting the rate of hydrolysis of the ligand by enzyme was recorded every 3 seconds for a total of 36 seconds using a Milton-Roy uv-visible spectrophotometer set at λ=285 nm.
A Lineweaver-Burk plot was used in order to determine the Km (substrate concentration at which the reaction rate reaches half of its maximum value), and relative Vmax (maximum reaction velocity), values. Average Michealis-Menten constant and maximum reaction velocity values for a selection compounds (N=3) were measured, and the results are set forth in Table 1 below.

[4] = SPECT imaging and brain fraction radiation counts after injection of radiolabeled compound; format: in vivo; settings: rat; after injection and several hours of SPECT imaging; sacrificed and perfused
Method: Shortly after the synthesis and purification detailed in Example 21, a rat was injected with the radiolabeled compound (6-oxo-1,6-dihydropyridin-2-yl)methyl-4-^123iodobenzoate and SPECT images were taken at regular time points for several hours.
After imaging, the rat was sacrificed and perfused. Radiation counts from HPLC attributable to (1,6-dihydro-6-oxopyridin-2-yl)methyl 4-^123iodobenzoate remaining in the brain fraction are shown in FIG. 4.

Chain of human recombinant AChE (P22303 32-614): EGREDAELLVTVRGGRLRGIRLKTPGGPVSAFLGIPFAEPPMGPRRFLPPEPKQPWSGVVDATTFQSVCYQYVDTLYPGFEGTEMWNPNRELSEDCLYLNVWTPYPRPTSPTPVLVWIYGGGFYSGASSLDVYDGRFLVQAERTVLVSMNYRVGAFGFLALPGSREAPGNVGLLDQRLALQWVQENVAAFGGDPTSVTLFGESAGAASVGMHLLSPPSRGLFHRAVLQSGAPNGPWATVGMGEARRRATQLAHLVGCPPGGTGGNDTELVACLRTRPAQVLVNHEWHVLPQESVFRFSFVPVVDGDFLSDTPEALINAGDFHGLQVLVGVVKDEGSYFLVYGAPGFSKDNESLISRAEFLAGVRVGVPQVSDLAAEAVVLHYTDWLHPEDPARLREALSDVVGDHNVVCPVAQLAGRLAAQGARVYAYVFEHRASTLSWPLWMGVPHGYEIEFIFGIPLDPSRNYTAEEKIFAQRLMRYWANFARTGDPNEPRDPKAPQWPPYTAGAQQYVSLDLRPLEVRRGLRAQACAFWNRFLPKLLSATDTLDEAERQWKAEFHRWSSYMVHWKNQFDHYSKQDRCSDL
T1 sequence (P06276 29-602): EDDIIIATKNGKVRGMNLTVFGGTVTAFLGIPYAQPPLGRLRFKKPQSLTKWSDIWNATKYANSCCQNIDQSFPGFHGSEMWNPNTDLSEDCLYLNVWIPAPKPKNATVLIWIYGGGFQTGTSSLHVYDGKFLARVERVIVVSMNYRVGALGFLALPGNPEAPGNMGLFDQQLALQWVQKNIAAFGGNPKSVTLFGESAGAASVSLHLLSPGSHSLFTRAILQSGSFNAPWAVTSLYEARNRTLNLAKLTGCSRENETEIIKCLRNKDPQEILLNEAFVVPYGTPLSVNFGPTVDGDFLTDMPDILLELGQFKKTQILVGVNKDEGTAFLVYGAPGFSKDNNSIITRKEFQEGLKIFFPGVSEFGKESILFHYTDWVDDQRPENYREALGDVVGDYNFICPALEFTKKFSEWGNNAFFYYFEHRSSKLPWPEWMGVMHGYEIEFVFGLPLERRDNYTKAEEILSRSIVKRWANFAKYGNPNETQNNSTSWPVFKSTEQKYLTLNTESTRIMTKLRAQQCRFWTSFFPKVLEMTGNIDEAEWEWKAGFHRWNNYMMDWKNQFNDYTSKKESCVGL

CN1CCC(OC(=O)c2cccc(C#N)c2)CC1 [1′-methylpiperidin-4′-yl 3-cyanobenzoate]
enzymatic hydrolysis of the compound in the presence of AChE [1]: does not occur
enzymatic hydrolysis of the compound in the presence of BuChE [2]: does occur

CN1CCC(OC(=O)c2cccc(I)c2)CC1 [1′-methylpiperidin-4′-yl 3-iodobenzoate]
enzymatic hydrolysis of the compound in the presence of AChE [1]: does not occur
enzymatic hydrolysis of the compound in the presence of BuChE [2]: does occur

CN1CCC(OC(=O)c2ccc(C#N)cc2)CC1 [1′-methylpiperidin-4′-yl 4-cyanobenzoate]
enzymatic hydrolysis of the compound in the presence of AChE [1]: does not occur

CN1CCC(OC(=O)c2ccccc2)CC1 [1′-methylpiperidin-4′-yl benzoate]
enzymatic hydrolysis of the compound in the presence of AChE [1]: does not occur
enzymatic hydrolysis of the compound in the presence of BuChE [2]: does occur

O=C(OCc1ccc[nH]c1=O)c1ccc(I)cc1 [Example 1, (1,2-dihydro-2-oxopyridin-3-yl)methyl 4-iodobenzoate]
enzymatic hydrolysis of the compound in the presence of AChE [1]: does not occur
enzymatic hydrolysis of the compound in the presence of BuChE [2]: does occur

O=C(OCc1ccc[nH]c1=O)c1ccc(F)cc1 [Example 2, (1,2-dihydro-2-oxopyridin-3-yl)methyl 4-fluorobenzoate]
enzymatic hydrolysis of the compound in the presence of AChE [1]: does not occur
enzymatic hydrolysis of the compound in the presence of BuChE [2]: does occur

N#Cc1ccc(C(=O)OCc2ccc[nH]c2=O)cc1 [Example 3, (1,2-dihydro-2-oxopyridin-3-yl)methyl 4-cyanobenzoate]
enzymatic hydrolysis of the compound in the presence of AChE [1]: does not occur
enzymatic hydrolysis of the compound in the presence of BuChE [2]: does occur

O=C(OCc1cccc(=O)[nH]1)c1ccc(I)cc1 [Example 4, (1,6-dihydro-6-oxopyridin-2-yl)methyl 4-iodobenzoate]
enzymatic hydrolysis of the compound in the presence of AChE [1]: does not occur
enzymatic hydrolysis of the compound in the presence of BuChE [2]: does occur
Vmax (relative maximum reaction velocity) [3]: 9.7 ± 1.7 ΔA min^−1

O=C(OCc1cccc(=O)[nH]1)c1ccc(F)cc1 [Example 5, (1,6-dihydro-6-oxopyridin-2-yl)methyl 4-fluorobenzoate]
enzymatic hydrolysis of the compound in the presence of AChE [1]: does not occur
enzymatic hydrolysis of the compound in the presence of BuChE [2]: does occur

N#Cc1ccc(C(=O)OCc2cccc(=O)[nH]2)cc1 [Example 6, (1,6-dihydro-6-oxopyridin-2-yl)methyl 4-cyanobenzoate]
enzymatic hydrolysis of the compound in the presence of AChE [1]: does not occur
enzymatic hydrolysis of the compound in the presence of BuChE [2]: does occur

CN1CCC(OC(=O)c2ccc(I)cc2)CC1 [Example 7, 1′-methylpiperidin-4′-yl 4-iodobenzoate]
enzymatic hydrolysis of the compound in the presence of AChE [1]: does not occur
enzymatic hydrolysis of the compound in the presence of BuChE [2]: does occur
Km [3]: 26 ± 2 µM
Vmax (relative maximum reaction velocity) [3]: 8.4 ± 0.4 ΔA min^−1

CN1CCC(OC(=O)c2ccc(F)cc2)CC1 [Example 8, 1′-methylpiperidin-4′-yl 4-fluorobenzoate]
enzymatic hydrolysis of the compound in the presence of AChE [1]: does not occur
enzymatic hydrolysis of the compound in the presence of BuChE [2]: does occur
Km [3]: 753 ± 115 µM
Vmax (relative maximum reaction velocity) [3]: 36 ± 6 ΔA min^−1

CN1CCC(OC(=O)c2ccc(C#N)cc2)CC1 [Example 9, 1′-methylpiperidin-4′-yl 4-cyanobenzoate]
enzymatic hydrolysis of the compound in the presence of BuChE [2]: does occur
Km [3]: 48 ± 18 µM
Vmax (relative maximum reaction velocity) [3]: 12 ± 3 ΔA min^−1

CN1CCC(OC(=O)c2ccccc2)CC1 [Example 10, 1′-methylpiperidin-4′-yl benzoate]
Km [3]: 68 ± 9 µM
Vmax (relative maximum reaction velocity) [3]: 6.8 ± 0.5 ΔA min^−1

CN1CC[C@H](OC(=O)c2ccc(I)cc2)C1 [Example 14, (5)-1′-methylpyrrolidin-3′-yl 4-iodobenzoate]
enzymatic hydrolysis of the compound in the presence of AChE [1]: does not occur
enzymatic hydrolysis of the compound in the presence of BuChE [2]: does occur
Km [3]: 16 ± 4 µM
Vmax (relative maximum reaction velocity) [3]: 6.1 ± 0.5 ΔA min^−1

CN1CC[C@H](OC(=O)c2ccc(C#N)cc2)C1 [Example 15, (S)-1′-methylpyrrolidin-3′-yl-4-cyanobenzoate]
enzymatic hydrolysis of the compound in the presence of AChE [1]: does not occur
enzymatic hydrolysis of the compound in the presence of BuChE [2]: does occur
Km [3]: 200 ± 52 µM
Vmax (relative maximum reaction velocity) [3]: 16 ± 4 ΔA min^−1

CN1CC[C@@H](OC(=O)c2ccc(I)cc2)C1 [Example 16, R-1′-methylpyrrolidin-3′-yl 4-iodobenzoate]
enzymatic hydrolysis of the compound in the presence of AChE [1]: does not occur
enzymatic hydrolysis of the compound in the presence of BuChE [2]: does occur
Km [3]: 144 ± 121 µM
Vmax (relative maximum reaction velocity) [3]: 10 ± 9 ΔA min^−1

CN1CC[C@@H](OC(=O)c2ccc(C#N)cc2)C1 [Example 17, R-1′-methylpyrrolidin-3′-yl-4-cyanobenzoate]
enzymatic hydrolysis of the compound in the presence of AChE [1]: does not occur
enzymatic hydrolysis of the compound in the presence of BuChE [2]: does occur
Km [3]: 198 ± 18 µM
Vmax (relative maximum reaction velocity) [3]: 30 ± 3 ΔA min^−1

O=C(OCc1cccc(=O)[nH]1)c1ccc([123I])cc1 [Example 21, (6-oxo-1,6-dihydropyridin-2-yl)methyl 4-^123iodobenzoate]
brain penetration (radiation counts in brain fraction, FIG. 4) [4]: penetrates into the brain

CCCC(=O)SCC[N+](C)(C)C [butyrylthiocholine, reference compound]
Km [3]: 30.6 ± 7 µM
